Calls of active or inactive are those of the source. The rule behind the calls is not given here.
Assays:
[1] = tested on: Trypanosoma brucei brucei; test: Antitrypanosomal activity against blood stage form of Trypanosoma brucei brucei 449 incubated for 24 hrs by ATPlite assay; format: functional, organism-based; settings: Trypanosoma brucei, 449, 24 h
[2] = target: Rhodesain (Trypanosoma brucei rhodesiense) (UniProt Q95PM0); test: Inhibition of Trypanosoma brucei rhodesain using increasing concentration of Cbz-Phe-Arg-AMC as substrate incubated for 30 mins by fluorometric assay
[3] = target: Rhodesain (Trypanosoma brucei rhodesiense) (UniProt Q95PM0); test: Inhibition of Trypanosoma brucei rhodesain assessed as combinational index measured at fraction affected value of 0.99 in presence of curcumin using Cbz-Phe-Arg-AMC as substrate incubated for 30 mins by fluorescence based assay
[4] = target: Rhodesain (Trypanosoma brucei rhodesiense) (UniProt Q95PM0); test: Inhibition of Trypanosoma brucei rhodesain assessed as combinational index measured at fraction affected value of 0.40 in presence of curcumin using Cbz-Phe-Arg-AMC as substrate incubated for 30 mins by fluorescence based assay
[5] = target: Rhodesain (Trypanosoma brucei rhodesiense) (UniProt Q95PM0); test: Inhibition of Trypanosoma brucei rhodesain assessed as combinational index measured at fraction affected value of 0.70 in presence of curcumin using Cbz-Phe-Arg-AMC as substrate incubated for 30 mins by fluorescence based assay
[6] = target: Rhodesain (Trypanosoma brucei rhodesiense) (UniProt Q95PM0); test: Inhibition of Trypanosoma brucei rhodesain assessed as combinational index measured at fraction affected value of 0.80 in presence of curcumin using Cbz-Phe-Arg-AMC as substrate incubated for 30 mins by fluorescence based assay
[7] = target: Rhodesain (Trypanosoma brucei rhodesiense) (UniProt Q95PM0); test: Inhibition of Trypanosoma brucei rhodesain assessed as combinational index measured at fraction affected value of 0.20 in presence of curcumin using Cbz-Phe-Arg-AMC as substrate incubated for 30 mins by fluorescence based assay
[8] = target: Rhodesain (Trypanosoma brucei rhodesiense) (UniProt Q95PM0); test: Inhibition of Trypanosoma brucei rhodesain assessed as combinational index measured at fraction affected value of 0.60 in presence of curcumin using Cbz-Phe-Arg-AMC as substrate incubated for 30 mins by fluorescence based assay
[9] = target: Rhodesain (Trypanosoma brucei rhodesiense) (UniProt Q95PM0); test: Inhibition of Trypanosoma brucei rhodesain assessed as combinational index measured at fraction affected value of 0.30 in presence of curcumin using Cbz-Phe-Arg-AMC as substrate incubated for 30 mins by fluorescence based assay
[10] = target: Rhodesain (Trypanosoma brucei rhodesiense) (UniProt Q95PM0); test: Inhibition of Trypanosoma brucei rhodesain assessed as combinational index measured at fraction affected value of 0.90 in presence of curcumin using Cbz-Phe-Arg-AMC as substrate incubated for 30 mins by fluorescence based assay
Rhodesain = Rhodesain (Trypanosoma brucei rhodesiense, UniProt Q95PM0); test: Inhibition of Trypanosoma brucei rhodesain in presence of curcumin using Cbz-Phe-Arg-AMC as substrate incubated for 30 mins by fluorometric assay
[11] = target: Rhodesain (Trypanosoma brucei rhodesiense) (UniProt Q95PM0); test: Inhibition of Trypanosoma brucei rhodesain assessed as combinational index measured at fraction affected value of 0.50 in presence of curcumin using Cbz-Phe-Arg-AMC as substrate incubated for 30 mins by fluorescence based assay
[12] = target: Rhodesain (Trypanosoma brucei rhodesiense) (UniProt Q95PM0); test: Inhibition of Trypanosoma brucei rhodesain assessed as combinational index measured at fraction affected value of 0.10 in presence of curcumin using Cbz-Phe-Arg-AMC as substrate incubated for 30 mins by fluorescence based assay
[13] = tested on: Trypanosoma brucei brucei; test: Antitrypanosomal activity against blood stage form of Trypanosoma brucei brucei 449 in presence of curcumin incubated for 24 hrs by ATPlite assay; format: functional, organism-based; settings: Trypanosoma brucei, 449, 24 h

Rhodesain (Trypanosoma brucei rhodesiense), sequence (Q95PM0 1-450): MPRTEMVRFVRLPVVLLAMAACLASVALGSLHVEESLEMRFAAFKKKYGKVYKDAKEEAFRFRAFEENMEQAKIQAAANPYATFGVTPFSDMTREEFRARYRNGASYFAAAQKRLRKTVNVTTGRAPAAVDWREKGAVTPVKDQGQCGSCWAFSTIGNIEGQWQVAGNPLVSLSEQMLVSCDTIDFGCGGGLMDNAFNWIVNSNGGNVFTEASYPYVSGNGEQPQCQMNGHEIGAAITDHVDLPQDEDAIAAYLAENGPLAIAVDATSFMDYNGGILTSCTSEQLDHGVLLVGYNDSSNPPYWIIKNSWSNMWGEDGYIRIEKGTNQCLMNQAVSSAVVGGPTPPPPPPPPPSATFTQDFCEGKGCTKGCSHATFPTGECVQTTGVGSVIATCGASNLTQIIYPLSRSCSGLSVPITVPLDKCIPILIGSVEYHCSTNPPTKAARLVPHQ
Rhodesain, sequence (Q95PM0 whole entry): as the sequence (Q95PM0 1-450) above

| IC50 [1] [µM] | inhibition [2] | CI [3] | CI [4] | CI [5] | CI [6] | CI [7] | CI [8] | CI [9] | CI [10] | IC50 (Rhodesain) [µM] | CI [11] | CI [12] | IC50 [13] [µM] | SMILES |
| --- | --- | --- | --- | --- | --- | --- | --- | --- | --- | --- | --- | --- | --- | --- |
| 3.12 | inactive |  |  |  |  |  |  |  |  |  |  |  |  | COc1cc(/C=C/C(=O)CC(=O)/C=C/c2ccc(O)c(OC)c2)ccc1O [CURCUMIN] |
| 2.33 | Active | 0.453 | 1 | 0.83 | 0.768 | 1.16 | 0.886 | 1.07 | 0.686 | 3.05 | 0.941 | 1.32 | 4.64 | CC(=O)/C=C/[C@H](CCc1ccccc1)NC(=O)[C@H](Cc1ccccc1)NC(=O)OCc1ccccc1 |

From ChEMBL document CHEMBL4613296 (ACS Med Chem Lett, 2020)
